Test results from article PMC10073347 (Nature chemistry, 2023).

Target: T1, SeMet CtdP (Penicillium citrinum, UniProt Z9QVB9HE69)
T1 sequence (Z9QVB9HE69 1-348): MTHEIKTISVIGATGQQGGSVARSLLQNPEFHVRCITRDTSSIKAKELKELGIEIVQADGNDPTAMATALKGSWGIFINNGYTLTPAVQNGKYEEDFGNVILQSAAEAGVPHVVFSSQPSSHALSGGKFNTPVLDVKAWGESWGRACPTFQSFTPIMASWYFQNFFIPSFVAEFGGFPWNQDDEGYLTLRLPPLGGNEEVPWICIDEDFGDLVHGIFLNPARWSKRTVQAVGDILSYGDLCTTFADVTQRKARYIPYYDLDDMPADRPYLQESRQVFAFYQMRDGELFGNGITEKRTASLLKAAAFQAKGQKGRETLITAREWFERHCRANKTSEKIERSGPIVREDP
Assay: X-ray crystal structure, […] Å, SeMet SAD
Type: binding
Settings: bound in all four chains; product 10 in chains A, B, D

With `NC(=O)c1ccc[n+]([C@@H]2O[C@H](COP(=O)(O)OP(=O)(O)OC[C@H]3O[C@@H](n4cnc5c(N)ncnc54)[C@H](OP(=O)(O)O)[C@@H]3O)[C@@H](O)[C@H]2O)c1` [NADP^+] the “X-ray crystal structure, 2.5 Å, SeMet SAD” value was “four chains (A-D) in the asymmetric unit, all in complex with NADP^+”.
